Assays:
[1] = biological target: T1, recombinant human KDM4A (Homo sapiens, UniProt O75164); assay: 14CO2 capture enzymatic assay (decarboxylation of [1-14C] αKG), KDM4A; format: biochemical; settings: 10 μM [1-14C] αKG, 90 μM non-labeled αKG, 50 μM peptide substrate, 37° C., 1 hour, final 1% DMSO
T1 construct: made in house
T1 sequence (O75164 1-359 limits assumed): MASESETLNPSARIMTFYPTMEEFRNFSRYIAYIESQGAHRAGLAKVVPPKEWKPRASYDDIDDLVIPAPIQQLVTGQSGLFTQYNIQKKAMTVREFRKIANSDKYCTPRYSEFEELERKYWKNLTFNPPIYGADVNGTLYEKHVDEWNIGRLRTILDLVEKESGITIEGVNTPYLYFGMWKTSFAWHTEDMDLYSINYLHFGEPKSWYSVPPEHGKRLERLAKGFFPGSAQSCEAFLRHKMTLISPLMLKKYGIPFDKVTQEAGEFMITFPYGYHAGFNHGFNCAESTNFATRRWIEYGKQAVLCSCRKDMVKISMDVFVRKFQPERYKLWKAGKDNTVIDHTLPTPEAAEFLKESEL
Summary of the method: (§1)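 Truncated recombinant human KDM5B (H3K4me3 peptide) or KDM4A (H3K9me3 peptide), 50 μM peptide, with 10 μM [1-14C]αKG plus 90 μM unlabeled αKG, 10 μM Fe(SO4), 2 mM ascorbate in pH 7.4 HEPES, 1 h at 37 °C, 1% DMSO. Released 14CO2 trapped on Ba(OH)2 filter; IC50 by non-linear fit.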

[2] = biological target: T2, recombinant human KDM5B (Homo sapiens, UniProt Q9UGL1); assay: 14CO2 capture enzymatic assay (decarboxylation of [1-14C] αKG), KDM5B; format: biochemical; settings: 10 μM [1-14C] αKG, 90 μM non-labeled αKG, 50 μM peptide substrate, 37° C., 1 hour, final 1% DMSO
T2 sequence (Q9UGL1 374-755 limits assumed): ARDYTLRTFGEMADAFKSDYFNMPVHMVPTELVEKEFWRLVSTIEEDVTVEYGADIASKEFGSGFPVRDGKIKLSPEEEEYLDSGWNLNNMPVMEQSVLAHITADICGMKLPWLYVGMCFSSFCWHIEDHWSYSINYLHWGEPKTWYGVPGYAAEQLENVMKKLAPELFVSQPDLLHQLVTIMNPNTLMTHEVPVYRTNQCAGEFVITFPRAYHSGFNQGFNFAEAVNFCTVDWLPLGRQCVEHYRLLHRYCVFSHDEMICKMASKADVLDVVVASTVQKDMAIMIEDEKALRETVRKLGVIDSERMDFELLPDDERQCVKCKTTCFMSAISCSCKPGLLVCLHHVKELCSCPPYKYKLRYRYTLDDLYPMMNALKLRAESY
Summary of the method: as §1

Row | Compound | IC50 [1] | IC50 [2]
1 | N#Cc1cc(Cc2ccccc2Cc2ccccc2)nc(C(=O)CCC(=O)O)c1O [Example 146, 4-[6-(2-Benzyl-benzyl)-4-cyano-3-hydroxy-pyridin-2-yl]-4-oxo-butyric acid] | 39 µM | 140 nM
2 | N#Cc1cc(-c2ccc(Cl)cc2)nc(C(=O)CCC(=O)O)c1O [Example 22, 4-[6-(4-Chloro-phenyl)-4-cyano-3-hydroxy-pyridin-2-yl]-4-oxo-butyric acid] | ≥ 40 µM | 180 nM
3 | N#Cc1cc(-c2cccc(C(F)(F)F)c2Cl)nc(C(=O)CCC(=O)O)c1O [Example 103, 4-[6-(2-Chloro-3-trifluoromethyl-phenyl)-4-cyano-3-hydroxy-pyridin-2-yl]-4-oxo-butyric acid] | > 40 µM | 380 nM
4 | Cc1cccc(F)c1Cc1cc(C#N)c(O)c(C(=O)CCC(=O)O)n1 [Example 148, 4-[4-Cyano-6-(2-fluoro-6-methyl-benzyl)-3-hydroxy-pyridin-2-yl]-4-oxo-butyric acid] | 4.3 µM | 300 nM
5 | N#Cc1cc(-c2cccc3ccccc23)nc(C(=O)CCC(=O)O)c1O [Example 68, 4-(4-Cyano-3-hydroxy-6-naphthalen-1-yl-pyridin-2-yl)-4-oxo-butyric acid] | > 40 µM | 280 nM
6 | Cc1cccc(C)c1Cc1cc(C#N)c(O)c(C(=O)CCC(=O)O)c1 [Example 122, 4-[3-Cyano-5-(2,6-dimethyl-benzyl)-2-hydroxy-phenyl]-4-oxo-butyric acid] | > 40 µM | 230 nM

Other lines, results leading:

Row | IC50 [1] | IC50 [2] | Compound
7 | > 40 µM | 270 nM | N#Cc1cc(-c2ccc(Cl)c3ccccc23)nc(C(=O)CCC(=O)O)c1O [Example 110, 4-[6-(4-Chloro-naphthalen-1-yl)-4-cyano-3-hydroxy-pyridin-2-yl]-4-oxo-butyric acid]
8 | 12 µM | 60 nM | N#Cc1cc(Cc2cccc3ccccc23)nc(C(=O)CCC(=O)O)c1O [Example 34, 4-(4-Cyano-3-hydroxy-6-naphthalen-1-ylmethyl-pyridin-2-yl)-4-oxo-butyric acid]
9 | > 40 µM | 390 nM | N#Cc1cc(Cc2ccc(-c3ccccc3)cc2)nc(C(=O)CCC(=O)O)c1O [Example 50, 4-(6-Biphenyl-4-ylmethyl-4-cyano-3-hydroxy-pyridin-2-yl)-4-oxo-butyric acid]
10 | > 40 µM | 230 nM | N#Cc1cc(Cc2c(Cl)cc(OC(F)(F)F)cc2Cl)nc(C(=O)CCC(=O)O)c1O [Example 143, 4-[4-Cyano-6-(2,6-dichloro-4-trifluoromethoxy-benzyl)-3-hydroxy-pyridin-2-yl]-4-oxo-butyric acid]
11 | > 40 µM | 560 nM | Cc1cccc(C)c1C(=O)Nc1cc(C#N)c(O)c(C(=O)CCC(=O)O)n1 [Example 129, 4-[4-Cyano-6-(2,6-dimethyl-benzoylamino)-3-hydroxy-pyridin-2-yl]-4-oxo-butyric acid]

— patent publication US20240002344A1, “COMPOUNDS, COMPOSITIONS AND METHODS FOR HISTONE LYSINE DEMETHYLASE INHIBITION” (FibroGen, Inc., priority 2020, published 2024)
